Reference: publication PMC9680032, “Conformationally Locked Carbocyclic Nucleosides Built on a 4′-Hydroxymethyl-3′-hydroxybicyclo[4.1.0]heptane Template. Stereoselective Synthesis and Antiviral Activity” (The Journal of Organic Chemistry, 2022)
Converted amounts (≈) assume the structure as drawn.

Key:
[1] = test system: Herpes simplex virus-1 (KOS); test: microbe, parasite or virus in culture; type: cell-based; settings: Human alphaherpesvirus 1, HEL, read-out: Antiviral EC50 Herpes simplex virus-1 (KOS)
[2] = test system: Herpes simplex virus-2 (G); test: microbe, parasite or virus in culture; type: cell-based; settings: Human alphaherpesvirus 2, HEL, read-out: Antiviral EC50 Herpes simplex virus-2 (G)
[3] = test system: Vaccinia virus; test: microbe, parasite or virus in culture; type: cell-based; settings: Orthopoxvirus vaccinia, HEL, read-out: Antiviral EC50 Vaccinia virus
[4] = test system: Adeno virus-2; test: organism not typed; type: cell-based; settings: HEL, read-out: Antiviral EC50 Adeno virus-2
[5] = test system: Human Coronavirus (229E); test: microbe, parasite or virus in culture; type: cell-based; settings: for EC50: Human coronavirus 229E, HEL, read-out: Antiviral EC50 Human Coronavirus (229E)
[6] = test system: Vesicular stomatitis virus; test: microbe, parasite or virus in culture; type: cell-based; settings: Vesicular stomatitis virus, HEp-2, read-out: Antiviral EC50 Vesicular stomatitis virus
[7] = test system: Coxsackie virus B4; test: Antiviral CPE assay, Coxsackie virus B4 in HEp-2 cells; type: cell-based; settings: Enterovirus B, B4, HEp-2
[8] = test system: Respiratory syncytial virus; test: Antiviral CPE assay, Respiratory syncytial virus in HEp-2 cells; type: cell-based; settings: human respiratory syncytial virus, HEp-2
[9] = Cytotoxicity in Vero cell cultures (MTS); type: cell-based, African green monkey; settings: African green monkey, Vero cells (kidney epithelial cells), uninfected, MTS assay, read-out: Cytotoxixity CC50
[10] = test system: Reo-virus-1; test: Antiviral CPE assay, Reovirus-1 in Vero cells; type: cell-based; settings: Vero
[11] = test system: Sindbis virus; test: Antiviral CPE assay, Sindbis virus in Vero cells; type: cell-based; settings: Sindbis virus, Vero
[12] = test system: Coxsackie virus B4; test: Antiviral CPE assay, Coxsackie virus B4 in Vero cells; type: cell-based; settings: Enterovirus B, B4, Vero
[13] = test system: Punta Toro virus; test: Antiviral CPE assay, Punta Toro virus in Vero cells; type: cell-based; settings: Punta Toro virus, Vero
[14] = test system: Yellow Fever virus; test: microbe, parasite or virus in culture; type: cell-based; settings: Yellow fever virus, Vero, read-out: Antiviral EC50 Yellow Fever virus, Vero cell cultures
[15] = test system: Zika virus; test: Antiviral CPE assay, Zika virus in Vero cells; type: cell-based; settings: Zika virus, Vero
[16] = test system: Influenza A virus A/Ned/378/05A (H1N1); test: Antiviral CPE assay, Influenza A (H1N1) in MDCK cells; type: cell-based; settings: Influenza A virus, H1N1, MDCK
[17] = test system: Influenza A virus A/HK/7/87 (H3N2); test: Antiviral CPE assay, Influenza A (H3N2) in MDCK cells; type: cell-based; settings: Influenza A virus, H3N2, MDCK
[18] = test system: Influenza B virus B/Ned/537/05; test: Antiviral CPE assay, Influenza B in MDCK cells; type: cell-based; settings: Influenza B virus; MDCK cell cultures
[19] = test system: Human immunodeficiency virus (IIIB); test: Antiviral CPE assay, HIV-1 (IIIB) in MT-4 cells; type: cell-based, human immunodeficiency virus type 1 (HIV-1); settings: Human immunodeficiency virus 1, IIIB, MT4
[20] = test system: Human immunodeficiency virus (ROD); test: Antiviral CPE assay, HIV-2 (ROD) in MT-4 cells; type: cell-based; settings: Human immunodeficiency virus 2, MT4
[21] = in vitro; settings: dog
[22] = Cytotoxicity in MT-4 cell cultures (MTS); settings: human, Cytotoxixity CC50, MT-4 cell cultures, MTS assay
[23] = Cytotoxicity in HEp-2 cell cultures (MTS); settings: human

Cc1cn(C2CC=C(CO)C3CC32)c(=O)[nH]c1=O (stereo not drawn) [Compound 19, 1-[(1′S,2′S,6′R)-5′-(hydroxymethyl)-bicyclo[4.1.0]hept-4′-en-2′-yl]-5-methylpyrimidine-2,4(1H,3H)-dione]
EC50 [1]: > 50 µg/mL | EC50 [2]: > 50 µg/mL | EC50 [3]: > 50 µg/mL | EC50 [4]: > 50 µg/mL | EC50 [5]: > 50 µg/mL | EC50 [6]: > 50 µg/mL | EC50 [7]: > 50 µg/mL | EC50 [8]: > 50 µg/mL | CC50 [9]: > 50 µg/mL | EC50 [10]: > 50 µg/mL | EC50 [11]: > 50 µg/mL | EC50 [12]: > 50 µg/mL | EC50 [13]: > 50 µg/mL | EC50 [14]: > 50 µg/mL | EC50 [15]: > 50 µg/mL | EC50 [16]: > 50 µg/mL | EC50 [17]: > 50 µg/mL | EC50 [18]: > 50 µg/mL | EC50 [19]: > 109 µg/mL | EC50 [20]: > 109 µg/mL | CC50 [21]: 18.6 µg/mL | CC50 [22]: 109 µg/mL (≈ 440 µM) | CC50 [23]: > 50 µg/mL

O=c1[nH]cnc2c1ncn2[C@H]1CC[C@@H](CO)O1 [Didanosine, reference compound]
EC50 [19]: 17.9 µg/mL (≈ 76 µM) | EC50 [20]: 19.4 µg/mL (≈ 82.1 µM) | CC50 [22]: > 50 µg/mL

OCC1C(O)CC(n2cc(-c3ccccc3)nn2)C2CC12 [Compound 3c, (1R,2R,3R,5S,6S)-2-(Hydroxymethyl)-5-(4″-phenyl-1H-1″,2″,3″-triazol-1-yl)bicyclo[4.1.0]heptan-3-ol]
EC50 [1]: > 50 µg/mL | EC50 [2]: > 50 µg/mL | EC50 [3]: > 50 µg/mL | EC50 [4]: > 50 µg/mL | EC50 [5]: > 50 µg/mL | EC50 [6]: > 50 µg/mL | EC50 [7]: > 50 µg/mL | EC50 [8]: > 50 µg/mL | CC50 [9]: > 50 µg/mL | EC50 [10]: > 50 µg/mL | EC50 [11]: > 50 µg/mL | EC50 [12]: > 50 µg/mL | EC50 [13]: > 50 µg/mL | EC50 [14]: > 50 µg/mL | EC50 [15]: > 50 µg/mL | EC50 [16]: > 50 µg/mL | EC50 [17]: > 50 µg/mL | EC50 [18]: > 50 µg/mL | EC50 [19]: > 96.2 µg/mL | EC50 [20]: > 96.2 µg/mL | CC50 [21]: 20.4 µg/mL | CC50 [22]: 96.2 µg/mL (≈ 337 µM) | CC50 [23]: > 50 µg/mL

CC(N)C12CC3CC(CC(C3)C1)C2 (stereo not drawn) [Rimantadine, reference compound]
EC50 [16]: 88.8 µM | EC50 [17]: 0.06 µM | EC50 [18]: > 200 µM | CC50 [21]: > 200 µM

Cc1cn([C@H]2C[C@H](F)[C@@H](CO)O2)c(=O)[nH]c1=O [Alovudine, reference compound]
EC50 [4]: 0.4 µM

Cc1cn([C@H]2C[C@H](N=[N+]=[N-])[C@@H](CO)O2)c(=O)[nH]c1=O [Zidovudine, reference compound]
EC50 [19]: 0.002 µg/mL (≈ 0.00748 µM) | EC50 [20]: 0.002 µg/mL (≈ 0.00748 µM) | CC50 [22]: > 2 µg/mL

NC(=O)c1ncn([C@@H]2O[C@H](CO)[C@@H](O)[C@H]2O)n1 [Ribavirin, reference compound]
EC50 [6]: 149 µM | EC50 [7]: 117 µM | EC50 [8]: 6.7 µM | EC50 [16]: 7.4 µM | EC50 [17]: 6.4 µM | EC50 [18]: 9.3 µM | CC50 [21]: > 100 µM | CC50 [23]: > 250 µM

Nc1ccn([C@H]2CC[C@@H](CO)O2)c(=O)n1 [Zalcitabine, reference compound]
EC50 [4]: 12 µM

COc1c(C)c2c(c(O)c1C/C=C(\C)CCC(=O)O)C(=O)OC2 [Mycophenolic acid, reference compound]
CC50 [9]: > 100 µM | EC50 [10]: 7.1 µM | EC50 [11]: 3.6 µM | EC50 [12]: > 100 µM | EC50 [13]: > 100 µM | EC50 [14]: 2.6 µM | EC50 [15]: 0.2 µM

CC(=O)N[C@H]1[C@H]([C@H](O)[C@H](O)CO)OC(C(=O)O)=C[C@@H]1N=C(N)N [Zanamivir, reference compound]
EC50 [16]: 0.9 µM | EC50 [17]: 4.9 µM | EC50 [18]: 1.4 µM | CC50 [21]: > 100 µM

B1: UDA: reference agent against Human Coronavirus (229E) in Table S1 (protein, UniProt P11218 24-372, looked up)
Lectin/endochitinase 1: QRCGSQGGGGTCPALWCCSIWGWCGDSEPYCGRTCENKCWSGERSDHRCGAAVGNPPCGQDRCCSVHGWCGGGNDYCSGSKCQYRCSSSVRGPRVALSGNSTANSIGNVVVTEPLFDQMFSHRKDCPSQGFYSYHSFLVAAESFPAFGTIGDVATRKREVAAFLAHISQATSGERSDVENPHAWGLCHINTTTVTENDFCTSSDWPCAAGKKYSPRGPIQLTHNFNYGLAGQAIGEDLIQNPDLVEKDPIISFKTALWFWMSQHDNKPSCHDIVLNANSAANRIPNKGVIGNIISRAFGHDDFAVRSSSIGFYKRYCDMLGVSYGHDLKYWFDNTPSSEFQRIQMRVAA
Antiviral EC50 Human Coronavirus (229E) ([5]; HEL cell cultures): 1.2 µg/mL
